Experimental data published in patent US20230255864A1, “NOVEL COMPOSITIONS COMBINING HEMP DERIVATIVES AND AT LEAST ONE PEPTIDE AND USE THEREOF” (FRANCE COSMEPHYL-LAB, priority 2020, published 2023).
“And” between values parts separate entries of the source, which are not always exact repeats. Identical values can stand only once.

Tested on: murine macrophages (RAW 267.4 cell line) stimulated with LPS from E. coli
Test: In vitro anti-inflammatory test: inhibition of NO production in LPS-stimulated murine macrophages (Griess reaction)
Type: cell-based
Settings: for Anti-inflammatory ratio: ratio between anti-inflammatory activity and toxicity (IC50 NO release and IC50 cell viability)
Description: Low-grade inflammation is strongly implicated in degenerative processes in human skin such as photoaging and atopy. The reduction of low-intensity inflammatory reactions by topical products may be necessary in the event of cutaneous aggression, to obtain optimal healing and restore the physiological balance of human skin. In order to identify new anti-inflammatory candidates, an in vitro anti-inflammatory test was developed with a murine cell line: the murine macrophage test RAW 267.4. This test was used to monitor the inhibitory effects of chemical compounds or natural extracts on the low-intensity inflammatory cascade leading to overproduction of nitrogen oxide (NO) in the endothelial wall of blood vessels.
The study was carried out to evaluate the ability of cannabidiol, palmitoyl tripeptide-8 (active ingredient in Neutrazen™), and their mixture to inhibit the pro-inflammatory cascade leading to the production of NO in murine macrophages stimulated by liposaccharides (LPS).
The in vitro anti-inflammatory test is based on the ability of murine macrophages to generate a strong inflammatory response when stimulated by antigens such as LPS. Immobilized murine macrophages (RAW 267.4 cell line) are stimulated with LPS from E. coli and exposed for 24 hours. At the end of the incubation period, the production of NO is evaluated indirectly by measuring the accumulation of nitrite/nitrate, stable final products of the oxidation of NO, in the culture medium using a method spectrophotometric based on the Griess reaction.
MURINS RAW 267.4 Macrophage cell line (Sigma-Aldrich, No. P6110401, Lot. 091006), low number of passages (less than 50).
Complete medium: DMEM with stabilized L-glutamine (Dulbecco's Minimum Essential Medium, PAN BIOTECH. Lot 974251) supplemented with Penicillin 100 IU/ml and streptomycin 100 μg/m1 (PAN BIOTECH, Lot 225614), and 10% inactivated calf serum (PAN BIOTECH, Lot P460518), pH 7.2, freshly prepared, stored for less than 3 weeks.
Cannabidiol (CBD) is diluted in DMSO (10 mg/mL storage solution), and subjected to an ultrasonic bath for 20 minutes. The Neutrazen™ solution is diluted in PBS (Phosphate buffer saline, Sigma-Aldrich).
The negative control: DMSO 1% The positive control: Dexamethasone (Sigma-Aldrich) 1-5-10-50-100 μM.
RAW 267.4 murine macrophages were inoculated into 48-well tissue culture plates at a concentration of 1.10^5 cells/ml (200 μl/well) and incubated for 24 hours at 37° C. (5% CO2).
At the end of the incubation period, the culture medium was replaced with 200 μl of medium containing the appropriate concentrations of the material to be tested, and the cells were incubated at 37° C. (5% CO2) for one hour.
At the end of the incubation period, pro-inflammatory E. coli LPS was added to the cell cultures (1 μg/ml. Then the cells were incubated at 37° C. (5% CO2) for 24 hours.
The amount of NO released was measured in the culture supernatant by the Griess reaction. 100 μl of the supernatants were transferred into the wells of a 96-well tissue culture plate, and modified Griess reagent (SIGMA-ALDRICH) were added to each well. After a period of 15 min at room temperature, the Optical Density (OD) of each well was read at a wavelength of 540 nm by an Infinite M200 Pro fluorescence-luminescence reader (TECAN).
The concentrations of test material causing a 50% decrease in NO release (IC50 (NO release)) and a 50% decrease in cell viability (IC50 (cell viability)) respectively were calculated using TableCurve software Version 2.0.
The anti-inflammatory ratio corresponds to the ratio between anti-inflammatory activity and toxicity. It is expressed as follows: […]
Analysis of the anti-inflammatory activity and of the cell viability of the cannabidiol/palmitoyl tripeptide-8 (Neutrazen™) association in a mixture by isobologram analysis.

C=C(C)[C@@H]1CCC(C)=C[C@H]1c1c(O)cc(CCCCC)cc1O [CBD]
NO production (% as compared to the negative control) (CBD 0.01 weight % in mixture with NeutraZen 0.01%): 94.48% and 98.73% and 100.63% | NO production (% as compared to the negative control) (CBD 0.01 weight % in mixture with NeutraZen 0.025%): 98.77% and 101.91% and 100.00% | NO production (% as compared to the negative control) (CBD 0.01 weight % in mixture with NeutraZen 0.05%): 100.00% and 103.82% and 103.16% | NO production (% as compared to the negative control) (CBD 0.01 weight % in mixture with NeutraZen 0.1%): 101.23% and 103.82% and 98.10% | NO production (% as compared to the negative control) (CBD 0.025 weight % in mixture with NeutraZen 0.01%): 87.12% and 89.17% and 92.41% | NO production (% as compared to the negative control) (CBD 0.025 weight % in mixture with NeutraZen 0.025%): 92.64% and 96.18% and 96.84% | NO production (% as compared to the negative control) (CBD 0.025 weight % in mixture with NeutraZen 0.05%): 93.87% and 100.00% and 98.10% | NO production (% as compared to the negative control) (CBD 0.025 weight % in mixture with NeutraZen 0.1%): 103.07% and 101.27% and 100.63% | NO production (% as compared to the negative control) (CBD 0.05 weight % in mixture with NeutraZen 0.01%): 84.66% and 85.99% and 88.61% | NO production (% as compared to the negative control) (CBD 0.05 weight % in mixture with NeutraZen 0.025%): 84.66% and 87.90% and 87.34% | NO production (% as compared to the negative control) (CBD 0.05 weight % in mixture with NeutraZen 0.05%): 84.05% and 86.62% and 87.97% | NO production (% as compared to the negative control) (CBD 0.05 weight % in mixture with NeutraZen 0.1%): 79.75% and 84.71% and 82.28% | NO production (% as compared to the negative control) (CBD 0.1 weight % in mixture with NeutraZen 0.01%): 80.37% and 77.07% and 85.44% | NO production (% as compared to the negative control) (CBD 0.1 weight % in mixture with NeutraZen 0.025%): 79.75% and 80.89% and 82.28% | NO production (% as compared to the negative control) (CBD 0.1 weight % in mixture with NeutraZen 0.05%): 79.75% and 79.62% and 83.54% | NO production (% as compared to the negative control) (CBD 0.1 weight % in mixture with NeutraZen 0.1%): 72.39% and 74.52% and 74.68% | NO production (% as compared to the negative control) (CBD 0.25 weight % in mixture with NeutraZen 0.01%): 53.37% and 61.15% and 60.76% | NO production (% as compared to the negative control) (CBD 0.25 weight % in mixture with NeutraZen 0.025%): 47.24% and 49.04% and 51.90% | NO production (% as compared to the negative control) (CBD 0.25 weight % in mixture with NeutraZen 0.05%): 47.24% and 52.87% and 47.47% | NO production (% as compared to the negative control) (CBD 0.25 weight % in mixture with NeutraZen 0.1%): 50.92% and 43.95% and 50.00% | NO production (% as compared to the negative control) (CBD 0.5 weight % in mixture with NeutraZen 0.01%): 0% and 0.63% | NO production (% as compared to the negative control) (CBD 0.5 weight % in mixture with NeutraZen 0.025%): 0% | NO production (% as compared to the negative control) (CBD 0.5 weight % in mixture with NeutraZen 0.05%): 0% and 4.46% and 1.27% | NO production (% as compared to the negative control) (CBD 0.5 weight % in mixture with NeutraZen 0.1%): 0% and 1.27% | NO production (% as compared to the negative control) (CBD 1 weight % in mixture with NeutraZen 0.01%): 0% | NO production (% as compared to the negative control) (CBD 1 weight % in mixture with NeutraZen 0.025%): 0% | NO production (% as compared to the negative control) (CBD 1 weight % in mixture with NeutraZen 0.05%): 0% | NO production (% as compared to the negative control) (CBD 1 weight % in mixture with NeutraZen 0.1%): 0% | NO production (% as compared to the negative control) (CBD 2.5 weight % in mixture with NeutraZen 0.01%): 0% | NO production (% as compared to the negative control) (CBD 2.5 weight % in mixture with NeutraZen 0.025%): 0% | NO production (% as compared to the negative control) (CBD 2.5 weight % in mixture with NeutraZen 0.05%): 0% | NO production (% as compared to the negative control) (CBD 2.5 weight % in mixture with NeutraZen 0.1%): 0% | IC50-NO release (non-linear regression of 3 series of experiments, weight %, for mixtures CBD concentration at the fixed Neutrazen concentration): 0.319 ± 0.006% | Anti-inflammatory ratio: <1 | Anti-inflammatory ratio (listed as cannabidiol): less than 1 | NO production (% as compared to the negative control) (sample alone at 0.01 weight %): 99.39% and 100.64% and 102.53% | NO production (% as compared to the negative control) (sample alone at 0.025 weight %): 96.93% and 97.45% and 98.10% | NO production (% as compared to the negative control) (sample alone at 0.05 weight %): 97.55% and 89.17% and 93.04% | NO production (% as compared to the negative control) (sample alone at 0.1 weight %): 95.09% and 99.36% and 99.37% | NO production (% as compared to the negative control) (sample alone at 0.25 weight %): 77.91% and 80.25% and 81.65% | NO production (% as compared to the negative control) (sample alone at 0.5 weight %): 2.45% and 5.10% and 2.53% | NO production (% as compared to the negative control) (sample alone at 1 weight %): 0.61% and 1.91% and 1.90% | NO production (% as compared to the negative control) (sample alone at 2.5 weight %): 0.00% and 2.55% and 1.27%
